Measured values as given in ChEMBL document CHEMBL2176892, “Conjugation of quinones with natural polyamines: toward an expanded antitrypanosomatid profile” (J Med Chem, 2012).
Activity calls are given as the source filed them. No cut-off for these calls is given here.

Assays:
L6 = assay: Cytotoxicity against rat L6 cells assessed as growth inhibition after 72 hrs by inverted microscopy; assay type: cell-based; details: L6, 72 h
[1] = Selectivity index, ratio of IC50 for rat L6 cells to IC50 for axenic amastigote form of Leishmania donovani strain MHOM-ET-67/L82; assay type: toxicity, cell-based; details: read-out: Ratio IC50
[2] = Selectivity index, ratio of IC50 for rat L6 cells to IC50 for promastigote form of Leishmania donovani strain MHOM/SD/00/1S-2D; assay type: toxicity, cell-based; details: read-out: Ratio IC50
[3] = Selectivity index, ratio of IC50 for rat L6 cells to IC50 for intracellular amastigote form of Trypanosoma cruzi Tulahuen strain C2C4; assay type: toxicity, cell-based; details: read-out: Ratio IC50
[4] = Selectivity index, ratio of IC50 for rat L6 cells to IC50 for trypomastigote form of Trypanosoma brucei rhodesiense strain STIB 900; assay type: toxicity, cell-based; details: read-out: Ratio IC50
Leishmania donovani [5] = assay: Antitrypanosomal activity against promastigote form of Leishmania donovani MHOM/SD/00/1S-2D assessed as growth inhibition after 72 hrs by inverted microscopy; assay type: functional, organism-based
Leishmania donovani [6] = assay: Antitrypanosomal activity against axenic amastigote form of Leishmania donovani MHOM-ET-67/L82 assessed as growth inhibition after 72 hrs by inverted microscopy; assay type: functional, organism-based; details: MHOM-ET-67/L82, 72 h
Trypanosoma cruzi = assay: Antitrypanosomal activity against intracellular amastigote form of Trypanosoma cruzi Tulahuen C2C4 infected in rat L6 cells assessed as growth inhibition after 92 hrs by inverted microscopy; assay type: functional, organism-based; details: Tulahuen C2C4, L6, 92 h
[7] = system: Trypanosoma brucei rhodesiense; assay: Antitrypanosomal activity against trypomastigote form of Trypanosoma brucei rhodesiense STIB 900 assessed as growth inhibition after 72 hrs by microplate fluorometry; assay type: functional, organism-based; details: STIB 900, 72 h
[8] = biological target: Trypanothione reductase (Trypanosoma brucei brucei) (UniProt P39051); assay: Induction of intrinsic oxidase activity of Trypanosoma brucei TR at 5 uM
Sequence of Trypanothione reductase (Trypanosoma brucei brucei) (P39051 whole entry, looked up): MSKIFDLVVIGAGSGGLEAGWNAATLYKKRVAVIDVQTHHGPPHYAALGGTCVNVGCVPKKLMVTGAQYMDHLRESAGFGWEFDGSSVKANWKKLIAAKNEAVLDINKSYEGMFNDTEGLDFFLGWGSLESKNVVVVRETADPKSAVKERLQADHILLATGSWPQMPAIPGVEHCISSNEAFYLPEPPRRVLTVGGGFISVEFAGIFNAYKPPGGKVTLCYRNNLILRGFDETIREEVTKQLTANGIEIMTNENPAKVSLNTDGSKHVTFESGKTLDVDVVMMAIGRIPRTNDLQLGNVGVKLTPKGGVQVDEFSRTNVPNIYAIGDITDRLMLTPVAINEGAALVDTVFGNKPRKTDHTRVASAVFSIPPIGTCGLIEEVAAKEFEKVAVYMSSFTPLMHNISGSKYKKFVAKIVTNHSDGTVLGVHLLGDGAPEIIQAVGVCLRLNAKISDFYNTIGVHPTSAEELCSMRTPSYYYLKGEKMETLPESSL

[9] = biological target: Trypanothione reductase (Trypanosoma brucei brucei) (UniProt P39051); assay: Inhibition of Trypanosoma brucei TR using 40 to 100 uM trypanothione disulfide assessed as remaining activity at 5 uM
Leishmania donovani [10] = assay: Reduction in free cytoplasmic ATP level in promastigote form of Leishmania donovani 3-Luc at 2.5 to 25 uM after 15 to 20 mins by luminescence assay; assay type: functional, organism-based
Leishmania donovani [11] = assay: Induction of morphological damage in promastigote form of Leishmania donovani MHOM/ET/67/L82 assessed as mitochondrial swelling at 5 uM after 4 hrs by transmission electron microscopy; assay type: functional, organism-based
Leishmania donovani [12] = assay: Reduction in mitochondrial electrochemical potential in promastigote form of Leishmania donovani MHOM/ET/67/L82 assessed as reduction in Rhodamine 123 fluorescence at 25 uM after 4 hrs by flow cytometry; assay type: functional, organism-based
Trypanothione reductase [13] = biological target: T1, Trypanothione reductase (Trypanosoma brucei brucei, UniProt P39051); assay: Mixed type inhibition of Trypanosoma brucei TR using varying levels of trypanothione disulfide assessed as inhibition constant for enzyme-substrate-inhibitor complex by Lineweaver-Burk plot
T1 sequence (P39051 whole entry): as the sequence (P39051 whole entry, looked up) above

Trypanothione reductase [14] = biological target: T1, Trypanothione reductase; assay: Mixed type inhibition of Trypanosoma brucei TR using varying levels of trypanothione disulfide assessed as inhibition constant for enzyme-inhibitor complex by Lineweaver-Burk plot
Trypanothione reductase [15] = biological target: T1, Trypanothione reductase; assay: Noncompetitive inhibition of Trypanosoma brucei TR using varying levels of trypanothione disulfide by Lineweaver-Burk plot
Leishmania donovani [16] = assay: Induction of morphological damage in promastigote form of Leishmania donovani MHOM/ET/67/L82 assessed as accumulation of vesicular material inside the flagellar pocket at 5 uM after 4 hrs by transmission electron microscopy; assay type: functional, organism-based

| SMILES | IC50 (Trypanosoma cruzi) [µM] | IC50 [7] [µM] | Activity [8] | Activity [9] [%] | Ki (Trypanothione reductase [13]) [µM] | Ki (Trypanothione reductase [14]) [µM] | Ki (Trypanothione reductase [15]) [µM] | IC50 (L6) [µM] | selectivity ratio [1] | selectivity ratio [2] | selectivity ratio [3] | selectivity ratio [4] | IC50 (Leishmania donovani [5]) [µM] | IC50 (Leishmania donovani [6]) [µM] | Activity (Leishmania donovani [10]) | Activity (Leishmania donovani [11]) | Activity (Leishmania donovani [12]) | Activity (Leishmania donovani [16]) |
| --- | --- | --- | --- | --- | --- | --- | --- | --- | --- | --- | --- | --- | --- | --- | --- | --- | --- | --- |
| O=C(Cn1ccnc1[N+](=O)[O-])NCc1ccccc1 [BENZNIDAZOLE] | – | – | – | – | – | – | – | > 384 | – | – | – | – | – | – | – | – | – | – |
| Nc1nc(N)nc(Nc2ccc([As]3SCC(CO)S3)cc2)n1 (stereo unspecified) [MELARSOPROL] | – | – | – | – | – | – | – | 18.3 | – | – | – | 1830 | – | – | – | – | – | – |
| NCCCNCCCCNCCCNCc1ccc(OC2=CC(=O)c3ccccc3C2=O)cc1 | 24.1 | 0.45 | Active | 36 | – | – | – | 7.05 | 1.22 | < 0.23 | 0.29 | 15.7 | > 30 | 5.79 | – | – | – | – |
| O=C1C=C(Oc2ccccc2)C(=O)c2cc3ccccc3cc21 | 4.66 | – | – | 51 | – | – | – | – | 2.91 | 0.35 | 0.21 | 19.8 | 2.81 | – | Dose-dependent effect | Active | Active | – |
| O=C1C=C(Oc2ccccc2)C(=O)c2ccccc21 | 1.26 | – | – | 51 | – | – | – | – | 4.7 | 8 | 4.7 | 74 | 0.74 | – | – | – | – | – |
| COc1cc([C@@H]2c3cc4c(cc3[C@H](O)[C@H]3COC(=O)[C@H]23)OCO4)cc(OC)c1OC [PODOFILOX] | – | – | – | – | – | – | – | 0.0017 | – | – | – | – | – | – | – | – | – | – |
| CCCCCCCCCCCCCCCCOP(=O)([O-])OCC[N+](C)(C)C [MILTEFOSINE] | – | – | – | – | – | – | – | 143 | 462 | – | – | – | – | – | – | – | – | – |

Second part, led by results:

| IC50 (Trypanosoma cruzi) [µM] | IC50 [7] [µM] | Activity [8] | Activity [9] [%] | Ki (Trypanothione reductase [13]) [µM] | Ki (Trypanothione reductase [14]) [µM] | Ki (Trypanothione reductase [15]) [µM] | SMILES | IC50 (L6) [µM] | selectivity ratio [1] | selectivity ratio [2] | selectivity ratio [3] | selectivity ratio [4] | IC50 (Leishmania donovani [5]) [µM] | IC50 (Leishmania donovani [6]) [µM] | Activity (Leishmania donovani [10]) | Activity (Leishmania donovani [11]) | Activity (Leishmania donovani [12]) | Activity (Leishmania donovani [16]) |
| --- | --- | --- | --- | --- | --- | --- | --- | --- | --- | --- | --- | --- | --- | --- | --- | --- | --- | --- |
| 34.8 | 0.32 | – | – | – | – | – | NCCCNCCCCNCCCNCc1ccc(OC2=CC(=O)c3cc4ccccc4cc3C2=O)cc1 | 7.21 | 2.15 | 0.45 | 0.21 | 22.5 | 16.1 | 3.35 | – | – | – | – |
| 52.2 | 0.72 | – | – | – | – | – | NCCCNCCCCNCc1ccc(OC2=CC(=O)c3ccccc3C2=O)cc1 | 9.18 | 1.28 | < 0.31 | 0.18 | 12.8 | > 30 | 7.17 | – | – | – | – |
| 30 | 0.22 | – | – | – | – | – | NCCCCNCc1ccc(OC2=CC(=O)c3ccccc3C2=O)cc1 | 11.1 | 1.63 | 1.27 | 0.37 | 50.5 | 8.72 | 6.81 | – | – | – | – |
| 17.4 | 0.07 | inactive | 36 | 3.9 | 3.4 | 3.4 | NCCCCCNCc1ccc(OC2=CC(=O)c3cc4ccccc4cc3C2=O)cc1 | 5.04 | 2.06 | 1.39 | 0.29 | 72 | 3.62 | 2.44 | Dose-dependent effect | – | Active | Active |
| 17.4 | 0.24 | – | – | – | – | – | NCCCNCCCNCCCNCc1ccc(OC2=CC(=O)c3cc4ccccc4cc3C2=O)cc1 | 4.87 | 2.03 | 0.53 | 0.29 | 20.3 | 9.08 | 2.4 | – | – | – | – |
| 18.6 | 0.35 | inactive | 36 | – | – | – | NCCCCNCc1ccc(OC2=CC(=O)c3cc4ccccc4cc3C2=O)cc1 | 5.6 | 1.98 | 1.56 | 0.3 | 16 | 3.59 | 2.82 | – | – | – | – |
| 20 | 0.26 | Active | 36 | 4.6 | 2.8 | – | NCCCCCNCc1ccc(OC2=CC(=O)c3ccccc3C2=O)cc1 | 9.1 | 1.37 | 1.18 | 0.45 | 35 | 7.72 | 6.63 | – | – | – | – |
| 18.8 | 0.46 | – | – | – | – | – | NCCCNCCCNCCCNCc1ccc(OC2=CC(=O)c3ccccc3C2=O)cc1 | 6.46 | 0.89 | < 0.21 | 0.34 | 14 | > 30 | 7.27 | – | – | – | – |
| 39.4 | 0.23 | inactive | 36 | – | – | – | NCCCNCCCCNCc1ccc(OC2=CC(=O)c3cc4ccccc4cc3C2=O)cc1 | 6.29 | 2.01 | 0.41 | 0.16 | 27.4 | 15.4 | 3.13 | – | – | – | – |
